# Experimental data as given in patent US12286398B2, “Anti-bacterial stilbene derivatives and methods of use” (YALE UNIVERSITY, priority 2019, dated 2025).
# Like-named read-outs stand apart in the source and are kept apart here.
# Key:
# [1] = system: MRSA; test: Lipid II supplementation rescue of MRSA growth; type: cell-based, Staphylococcus aureus; details: lethal concentrations of antibiotic, with lipid II in the media
# Text: (§1) FIGS. 21A-21D show (FIG. 21A) SYTOX Green fluorescence assay for antibiotic-induced bacterial membrane permeability. Vancomycin was used as a negative control, and daptomycin was used as a positive control. Error bars represent the standard error of the mean across 3 biological replicates. […] Vancomycin was used as a positive control. The UDP-MurNAc-pentapeptide was identified by mass spectrometry, with an [M+H]^+ of 1150.3590. Error bars represent the standard deviation of three biological replicates. […] Lipid II cannot rescue bacteria grown in the presence of ciprofloxacin (an inhibitor of DNA replication). Data from three biological replicates are shown. […] Vancomycin was used as a positive control. Lipid II was boiled to remove the lipid tail, and de-lipidated lipid II was quantified by mass spectrometry, with an [M+H]^+ of 1331.5362. Error bars represent the standard deviation of three biological replicates.
# Lipid II is a crucial peptidoglycan building block downstream of UDP-MurNAc-pentapeptide and is the target of several antibiotics, including vancomycin. Bacteria were grown in the presence of lethal concentrations of antibiotics with and without supplementation of lipid II into the media. […] These lipids are the targets of numerous antibiotics. Compounds that bind to lipid II are known to result in its accumulation in cells, while compounds that bind to C55-P or C55-PP result in a reduction in lipid II levels. […] The lipid tail of lipid II can be removed by boiling in acidic conditions, allowing quantification by LC-MS. Following this protocol, an accumulation of a mass matching de-lipidated lipid II when bacteria were treated with either compounds of Formula I or vancomycin (FIG. 21D) was observed. The identity of this molecule was confirmed by tandem mass spectrometry and compared to published fragmentation data. Without being bound by theory, it is believed that compounds of Formula I target the bacterial cell wall by binding to lipid II and preventing its polymerization and cross-linking into peptidoglycan.
# [2] = system: UDP-MurNAc-pentapeptide in MRSA; test: Accumulation of cell wall precursor UDP-MurNAc-pentapeptide in MRSA; type: cell-based, Staphylococcus aureus; details: compared to DMSO
# Text: (§2) FIGS. 21A-21D show (FIG. 21A) SYTOX Green fluorescence assay for antibiotic-induced bacterial membrane permeability. Vancomycin was used as a negative control, and daptomycin was used as a positive control. Error bars represent the standard error of the mean across 3 biological replicates. […] Vancomycin was used as a positive control. […] Error bars represent the standard deviation of three biological replicates. […] Data from three biological replicates are shown. […] Vancomycin was used as a positive control. […] Error bars represent the standard deviation of three biological replicates.
# (§3) The effects of compounds of Formula I on the bacterial cell wall were thus investigated. […] The effects of compounds of Formula I on cell wall biosynthesis was investigated by looking for accumulation of the cell wall precursor molecule UDP-MurNAc-pentapeptide (FIG. 21B).
# [3] = system: lipid II in MRSA; test: Accumulation of lipid II in MRSA, LC-MS of de-lipidated lipid II; type: cell-based, Staphylococcus aureus; details: compared to DMSO
# Text: as §1
# Lipid II is a crucial peptidoglycan building block downstream of UDP-MurNAc-pentapeptide and is the target of several antibiotics, including vancomycin. Bacteria were grown in the presence of lethal concentrations of antibiotics with and without supplementation of lipid II into the media. […] These lipids are the targets of numerous antibiotics. […] The lipid tail of lipid II can be removed by boiling in acidic conditions, allowing quantification by LC-MS. […]
# [4] = system: methicillin-resistant Staphylococcus aureus (MRSA); test: Growth inhibition assay, minimum inhibitory concentration against MRSA; type: cell-based; details: for MIC: Staphylococcus aureus
# Protocol: (§4) Growth Inhibition Assays. Compounds were prepared in DMSO to a concentration of 10 mM. DMSO was used as a vehicle negative control, and vancomycin (MRSA) and ampicillin (VRE) were also prepared as positive controls for minimum inhibitory concentration (MIC) tests. Compounds were tested for antimicrobial activity against MRSA and VRE at 100, 50, 25, 12.5, 6.25, 3.13, 1.56, 0.78, and 0.39 μM. MRSA was grown in tryptic soy broth and VRE was grown in brain heart infusion medium. Overnight cultures of bacteria were diluted to OD600=0.1 and 50 μL of cell culture broth was added to each well. Media (50 μL) containing compound at the appropriate concentration was then added to the cell cultures and the plates were sealed and incubated at 37° C. overnight. Plates were then read for OD600 using a PerkinElmer Envision 2100 multimode plate reader (PerkinElmer, Waltham, MA, USA). […] All samples were tested in triplicate.
# (§5) Determination of Minimum Inhibitory Concentration. All compounds were freshly dissolved in DMSO at a stock solution of 10 mM. DMSO (solvent vehicle) was used as a negative control and vancomycin and ampicillin were used as positive controls for MRSA and VRE, respectively. Compounds were dispensed into 96-well plates at 100, 50, 25, 12.5, 6.25, 3.13, 1.56, 0.78, and 0.39 μM. Overnight cultures of MRSA grown in tryptic soy broth and VRE grown in brain heart infusion medium were diluted to OD600 of 0.1, and 50 μL of fresh cell culture broth was added to each well. The plates were sealed and incubated at 37° C. overnight. Plates were then monitored for OD600 using a PerkinElmer Envision 2100 multimode plate reader (PerkinElmer, Waltham, MA, USA).
# [5] = system: vancomycin-resistant Enterococcus faecalis (VRE); test: Growth inhibition assay, minimum inhibitory concentration against VRE; type: cell-based
# Protocol: as §4, §5
# [6] = system: MRSA; test: SYTOX Green fluorescence assay for bacterial membrane permeability; type: cell-based, Staphylococcus aureus
# Text: as §2, §3
# [7] = system: MRSA; details: after 30 days, identical conditions
# Text: Fold change in MIC for one culture grown in the presence of sub-inhibitory levels of ciprofloxacin for 30 days is shown as a positive control.
# An attempt to culture MRSA mutants resistant to compounds of Formula I was made by subculturing two independent cultures of bacteria continuously in the presence of non-lethal concentrations of 5.
# [8] = Table 6, read-out: Minimal inhibitory concentrations, S. aureus (methicillin resistant)
# [9] = Enterococcus faecalis, Table 6, read-out: Minimal inhibitory concentrations, E. faecalis (vancomycin resistant)
Compound,"MIC [4, 8] [µM]","MIC [5, 9] [µM]",antibiotic activity against MRSA (in words) [4],antibiotic activity against VRE (in words) [5],further results
"CN[C@H](CC(C)C)C(=O)N[C@H]1C(=O)N[C@@H](CC(N)=O)C(=O)N[C@H]2C(=O)N[C@H]3C(=O)N[C@H](C(=O)N[C@H](C(=O)O)c4cc(O)cc(O)c4-c4cc3ccc4O)[C@H](O)c3ccc(c(Cl)c3)Oc3cc2cc(c3O[C@@H]2O[C@H](CO)[C@@H](O)[C@H](O)[C@H]2O[C@H]2C[C@](C)(N)[C@H](O)[C@H](C)O2)Oc2ccc(cc2Cl)[C@H]1O [vancomycin, reference compound]",,,,,restoration of MRSA growth by lipid II supplementation [1]: restored MRSA growth to antibiotic-free levels; level of UDP-MurNAc-pentapeptide [2]: significant increase; accumulation of lipid II (de-lipidated lipid II) [3]: accumulation
"Oc1cc(O)cc(/C=C/c2ccccc2)c1 [compound 6, pinosylvin, reference compound]",> 100,> 100,,,
"CC(C)c1c(O)cc(/C=C/c2ccccc2)cc1O [compound 1, tapinarof, reference compound]",27,51,,,MIC ([4]; read-out: MIC): 27 µM; MIC ([5]; read-out: MIC): 50.5 µM
"CC(C)C1=C(O)C(=O)C(/C=C/c2ccccc2)=C(c2c(/C=C/c3ccccc3)cc(O)c(C(C)C)c2O)C1=O [compound 5, duotap-520]",,,,,restoration of MRSA growth by lipid II supplementation [1]: restore growth; level of UDP-MurNAc-pentapeptide [2]: Accumulation; accumulation of lipid II (de-lipidated lipid II) [3]: Accumulation
CCCCCCCCCC(=O)N[C@@H](Cc1c[nH]c2ccccc12)C(=O)N[C@H](CC(N)=O)C(=O)N[C@@H](CC(=O)O)C(=O)N[C@@H]1C(=O)NCC(=O)N[C@@H](CCCN)C(=O)N[C@@H](CC(=O)O)C(=O)N[C@H](C)C(=O)N[C@@H](CC(=O)O)C(=O)NCC(=O)N[C@H](CO)C(=O)N[C@@H]([C@H](C)CC(=O)O)C(=O)N[C@@H](CC(=O)c2ccccc2N)C(=O)O[C@@H]1C [daptomycin],,,,,membrane permeability [6]: increase in membrane permeability
"O=C1C=C(O)C(=O)C(/C=C/c2ccc(O)cc2)=C1c1c(O)cc(O)cc1/C=C/c1ccc(O)cc1 [compound 9, duotap-468]",> 100,> 100,no enhancement of activity,no enhancement of activity,
O=C(O)c1cn(C2CC2)c2cc(N3CCNCC3)c(F)cc2c1=O [ciprofloxacin],,,,,restoration of MRSA growth by lipid II supplementation [1]: not able to rescue bacterial growth; increase in MIC [7]: approximately 37 fold
"O=C1C=C(O)C(=O)C(/C=C/c2ccccc2)=C1c1c(O)cc(O)cc1/C=C/c1ccccc1 [compound 8, duotap-436]",4,6,significantly enhanced antibiotic activity compared to 6,significantly enhanced antibiotic activity compared to 6,activity against VRE [5]: 6 µg/mL
"Oc1ccc(C=Cc2cc(O)cc(O)c2)cc1 [compound 7, resveratrol, reference compound]",25,14,,,
"CC(C)c1c(O)cc(C2OC2c2ccccc2)cc1O (stereo not drawn) [compound 2, stilbene epoxide, reference compound]",,,little to no activity,little to no activity,
"lumiquinone A [compound 3, reference compound]",,,little to no activity,little to no activity,
